Test results published in paper PMC5118696, “Identification of inhibitors that dually target the new permeability pathway and dihydroorotate dehydrogenase in the blood stage of Plasmodium falciparum” (Scientific Reports, 2016).
Read-outs that look alike come from different tables or passages of the source.

Assays:
[1] = system: Hyp1-NLuc Plasmodium falciparum-infected erythrocytes (new permeability pathway, NPP); test: microbe, parasite or virus in culture; conditions: Erythrocyte, 0.33 h, read-out: Mean RLU at 28 min (As % of DMSO control)
[2] = system: Hyp1-NLuc Plasmodium falciparum-infected erythrocytes (new permeability pathway, NPP); test: microbe, parasite or virus in culture; conditions: Erythrocyte, 0.33 h, read-out: % of control remaining

Structure (SMILES) | activity at 2 µM [1] | activity at 2 µM [2]
COc1ccc(CCNC(=O)c2cc(S(=O)(=O)N3CC(C)CC(C)C3)ccc2Sc2ccc(F)cc2)cc1OC (centres unmarked) [MMV007557] | 102% | 106%
CCOc1ccc(-n2cc(-c3ccccc3)c3c(SCc4cc(C)ccc4C)ncnc32)cc1 [MMV085471] | 104% | 118%
C=C(C)CCC(C)N1CCC(N2CCC(C(=O)NCCc3ccccc3)CC2)CC1 (centres unmarked) [MMV666110] | 108% | 116%
CCC(O)c1ccc(Br)cc1NC(=O)c1cccc(Cl)c1 (centres unmarked) [MMV020654] | 113% | 105%
COc1cc(CNCCc2ccc(Cl)cc2)cc(OC)c1O [MMV128432] | 97.7% | 97.8%
COc1ccc(C2Sc3ccccc3N=C3C2=C(O)c2ccccc23)cc1 (centres unmarked) [MMV000563] | 101% | 106%
COc1ccc(NC(=O)C2c3ccccc3C(=O)N(CC(C)C)C2c2cccs2)cc1Cl (centres unmarked) [MMV000642] | 94.6% | 94%
CC(=O)c1sc(NC(=O)Nc2ccc(C)cc2C)nc1C [MMV665894] | 99.8% | 93%
COc1cc(-c2nc(-c3ccccc3)c(-c3ccccc3)[nH]2)cc(OC)c1O [MMV020750] | 102% | 109%
O=C(NC1CCCC1)c1ccc(N2CCC(NCc3cccc(C(F)(F)F)c3)CC2)cc1 [MMV666070] | 111% | 123%
COc1ccc(-c2c(C)nn3c(N)c(C#N)cnc23)cc1OC [MMV396797] | 104% | 89.6%
COc1cccc(O)c1CN1CCC2(CCCN(Cc3ccc(F)cc3)C2)C1 (centres unmarked) [MMV666061] | 111% | 126%
O=C(NCC(c1ccsc1)N1CCCCCC1)c1ccc(C(F)(F)F)cc1 (centres unmarked) [MMV396672] | 101% | 98.1%
CCOc1cc(Br)c(C(C)NC(=O)c2cccc(OC)c2)cc1OCC (centres unmarked) [MMV665796] | 106% | 115%
COCCn1c(C)nc2ccccc2c1=O [MMV665904] | 110% | 112%
CCN1CCN(Cc2ccc(NC(=O)c3cc4ccc5cccnc5c4[nH]3)cc2)CC1 [MMV020548] | 92.8% | 55.5%
O=C(CCc1ccccc1)c1ccccc1OCC(O)CN1CCCCC1 (centres unmarked) [MMV009015] | 107% | 106%
CCOC(=O)c1cnc2c(C)cc(C)cc2c1Nc1ccc(OC)c(OC)c1 [MMV008294] | 104% | 97.1%
OC(Cn1nnc2ccccc21)Cn1c2ccc(Br)cc2c2cc(Br)ccc21 (centres unmarked) [MMV666025] | 99.5% | 105%
COc1cccc(C2(C)Nc3ccccc3-c3nc4ccccc4n32)c1 (centres unmarked) [MMV396719] | 105% | 105%
Cc1sc(NC(=O)c2ccccc2)c(C(c2cccs2)N2CCN(c3ccccc3)CC2)c1C (centres unmarked) [MMV396652] | 101% | 104%
CN1c2ccccc2N(C)C1c1ccc2c(c1)OCO2 [MMV666009] | 104% | 114%
Oc1ccc2ccccc2c1CNc1nc2ccccc2[nH]1 [MMV011832] | 107% | 102%
CCCCCCc1cc2cc(-c3csc(C=Cc4ccccc4)n3)c(=O)oc2cc1O [MMV666692] | 102% | 99.2%
Nc1ccc(-c2nc3cc(Oc4ccc(Oc5ccc6[nH]c(-c7ccc(N)cc7)nc6c5)cc4)ccc3[nH]2)cc1 [MMV011895] | 91.2% | 74.5%
COc1ccc(Nc2cc(C)nc(NCc3ccccc3)n2)cc1 [MMV006825] | 107% | 110%
N=c1n(CCN2CCCCC2)c2ccccc2n1CC(=O)c1ccc(Cl)c(Cl)c1 [MMV396723] | 98.3% | 91.7%
c1ccc(CNc2nc(Nc3ccccc3)nc3ccccc23)cc1 [MMV006169] | 102% | 114%
